Experiments:
[1] = in vitro; conditions: human, liver microsomes
[2] = in vitro; conditions: mouse, liver microsomes

| SMILES | microsomal CLint at 0.5 h, 1 µM [1] | microsomal CLint at 0.5 h, 1 µM [2] |
| --- | --- | --- |
| COc1ccc(CC(=O)NC(=N)N[C@H](CC2CC2)C(=O)Nc2cc(S(N)(=O)=O)ccc2C)cc1OC | 108 µL/min/mg | 229 µL/min/mg |
| Cc1ccc(S(=O)(=O)N(C)C)cc1NC(=O)[C@@H](CC1CCCCC1)NC(=N)NC(=O)Cc1cc(C(F)(F)F)cc(C(F)(F)F)c1 | 246 µL/min/mg | 258 µL/min/mg |
| COc1ccc(CC(=O)NC(=N)N[C@@H](C(=O)Nc2cc(S(N)(=O)=O)ccc2C)C2=CCC=CC2)cc1OC | 138 µL/min/mg | 178 µL/min/mg |
| CNS(=O)(=O)c1ccc(C)c(NC(=O)[C@@H](CC2CCCCC2)NC(=N)NC(=O)Cc2cc(Cl)cc(OC)c2)c1 | 212 µL/min/mg | 212 µL/min/mg |
| COc1ccc(CC(=O)NC(=N)N[C@H](CC2CCCCC2)C(=O)Nc2cc(S(=O)(=O)NC(C)C)ccc2C)cc1OC | 277 µL/min/mg | 240 µL/min/mg |
| COc1ccc(CC(=O)NC(=N)N[C@H](CC2CCCCC2)C(=O)Nc2cc(S(=O)(=O)N(C)C)ccc2C)cc1F | 241 µL/min/mg | 241 µL/min/mg |
| COc1ccc(CC(=O)NC(=N)NCC(=O)Nc2cc(S(N)(=O)=O)ccc2C)cc1OC | 18 µL/min/mg | 20 µL/min/mg |
| CC[C@@H](NC(=N)NC(=O)Cc1ccc(OC)c(OC)c1)C(=O)Nc1cc(S(N)(=O)=O)ccc1C | 55.1 µL/min/mg | 118 µL/min/mg |
| COc1ccc(CC(=O)NC(=N)N[C@@H](C(=O)Nc2cc(S(N)(=O)=O)ccc2C)C2CC2)cc1OC | 40 µL/min/mg | 100 µL/min/mg |
| COc1ccc(CC(=O)NC(=N)N[C@H](Cc2cc3ccccc3s2)C(=O)Nc2cc(S(N)(=O)=O)ccc2C)cc1OC | 251 µL/min/mg | 239 µL/min/mg |
| Cc1ccc(S(=O)(=O)N(C)C)cc1NC(=O)[C@@H](CC1CCCCC1)NC(=N)NC(=O)c1ccc2c(c1)OCCO2 | 253 µL/min/mg | 272 µL/min/mg |
| COCC[C@@H](NC(=N)NC(=O)Cc1ccc(OC)c(OC)c1)C(=O)Nc1cc(S(N)(=O)=O)ccc1C | 43.1 µL/min/mg | 57.3 µL/min/mg |
| CCCC[C@@H](NC(=N)NC(=O)Cc1ccc(OC)c(OC)c1)C(=O)Nc1cc(S(N)(=O)=O)ccc1C | 215 µL/min/mg | 231 µL/min/mg |
| COc1ccc(CC(=O)NC(=N)N[C@H](CC2CCCCC2)C(=O)Nc2cc(S(=O)(=O)N3CCN(C)CC3)ccc2C)cc1OC | 271 µL/min/mg | 212 µL/min/mg |
| COc1ccc(CC(=O)NC(=N)N[C@@H](C(=O)Nc2cc(S(N)(=O)=O)ccc2C)C2CCCCC2)cc1OC | 225 µL/min/mg | 210 µL/min/mg |
| CNS(=O)(=O)c1ccc(C)c(NC(=O)[C@@H](CC2CCCCC2)NC(=N)NC(=O)Cc2ccc(S(C)(=O)=O)cc2)c1 | 241 µL/min/mg | 208 µL/min/mg |
| COc1ccc(CC(=O)NC(=N)N[C@H](CC(C)C)C(=O)Nc2cc(S(N)(=O)=O)ccc2C)cc1OC | 160 µL/min/mg | 102 µL/min/mg |
| COc1ccc(CC(=O)NC(=N)N[C@H](C)C(=O)Nc2cc(S(N)(=O)=O)ccc2C)cc1OC | 27.8 µL/min/mg | 50.6 µL/min/mg |
| CNS(=O)(=O)c1ccc(C)c(NC(=O)[C@@H](Cc2ccccc2)NC(=N)NC(=O)Cc2ccc(OC)c(OC)c2)c1 | 131 µL/min/mg | 149 µL/min/mg |

| SMILES | microsomal CLint at 0.5 h, 1 µM [1] | microsomal CLint at 0.5 h, 1 µM [2] |
| --- | --- | --- |
| COc1ccc(CC(=O)NC(=N)N[C@H](CC2CCCCC2)C(=O)Nc2cc(S(=O)(=O)N(C(C)C)C(C)C)ccc2C)cc1OC | 259 µL/min/mg | 259 µL/min/mg |
| COc1ccc(CC(=O)NC(=N)N[C@H](C(=O)Nc2cc(S(N)(=O)=O)ccc2C)C2CCCC2)cc1OC | 174 µL/min/mg | 179 µL/min/mg |
| Cc1ccc(S(=O)(=O)N(C)C)cc1NC(=O)[C@@H](CC1CCCCC1)NC(=N)NC(=O)Cc1ccc2ccccc2c1 | 169 µL/min/mg | 200 µL/min/mg |
| COc1ccc(CC(=O)NC(=N)N[C@H](CCSC)C(=O)Nc2cc(S(N)(=O)=O)ccc2C)cc1OC | 262 µL/min/mg | 297 µL/min/mg |
| COc1ccc(CC(=O)NC(=N)N[C@H](CC2CCCCC2)C(=O)Nc2cc(N(S(C)(=O)=O)S(C)(=O)=O)ccc2C)cc1OC | 186 µL/min/mg | 165 µL/min/mg |
| COc1ccc(CC(=O)NC(=N)N[C@H](Cc2ccccc2)C(=O)Nc2cc(S(N)(=O)=O)ccc2C)cc1OC | 191 µL/min/mg | 193 µL/min/mg |
| Cc1ccc(S(=O)(=O)N(C)C)cc1NC(=O)[C@@H](CC1CCCCC1)NC(=N)NC(=O)Cc1ccc(C(F)(F)F)cc1 | 291 µL/min/mg | 282 µL/min/mg |
| COc1ccc(CC(=O)NC(=N)N[C@H](CN2CCOCC2)C(=O)Nc2cc(S(N)(=O)=O)ccc2C)cc1OC | 31.8 µL/min/mg | 49.1 µL/min/mg |
| CCOC[C@@H](NC(=N)NC(=O)Cc1ccc(OC)c(OC)c1)C(=O)Nc1cc(S(N)(=O)=O)ccc1C | 59.1 µL/min/mg | 86.8 µL/min/mg |
| Cc1ccc(S(=O)(=O)N(C)C)cc1NC(=O)[C@@H](CC1CCCCC1)NC(=N)NC(=O)C1CCCc2ccccc21 (some centres not stated) | 237 µL/min/mg | 259 µL/min/mg |
| COc1ccc(CC(=O)NC(=N)N[C@@H](C(=O)Nc2cc(S(N)(=O)=O)ccc2C)C(C)C)cc1OC | 64.3 µL/min/mg | 174 µL/min/mg |
| Cc1ccc(S(=O)(=O)N(C)C)cc1NC(=O)[C@@H](CC1CCCCC1)NC(=N)NC(=O)Cc1ccc(F)c(F)c1 | 163 µL/min/mg | 264 µL/min/mg |
| COc1ccc(CC(=O)NC(=N)N[C@H](Cn2cc(-c3ccccc3)nn2)C(=O)Nc2cc(S(N)(=O)=O)ccc2C)cc1OC | 340 µL/min/mg | 367 µL/min/mg |
| COc1ccc(CC(=O)NC(=N)N[C@H](CC2CCCCC2)C(=O)Nc2cc(S(=O)(=O)NC3CC3)ccc2C)cc1OC | 179 µL/min/mg | 354 µL/min/mg |
| COC[C@@H](NC(=N)NC(=O)Cc1ccc(OC)c(OC)c1)C(=O)Nc1cc(S(N)(=O)=O)ccc1C | 26.9 µL/min/mg | 47.2 µL/min/mg |
| CNS(=O)(=O)c1ccc(C)c(NC(=O)[C@H](NC(=N)NC(=O)Cc2ccc(OC)c(OC)c2)C2CCCCC2)c1 | 211 µL/min/mg | 173 µL/min/mg |
| COc1ccc(CC(=O)NC(=N)N[C@H](CSC)C(=O)Nc2cc(S(N)(=O)=O)ccc2C)cc1OC | 187 µL/min/mg | 197 µL/min/mg |
| COc1ccc(CC(=O)NC(=N)N[C@H](Cc2ccccc2F)C(=O)Nc2cc(S(N)(=O)=O)ccc2C)cc1OC | 171 µL/min/mg | 149 µL/min/mg |
| CNS(=O)(=O)c1ccc(C)c(NC(=O)[C@H](NC(=N)NC(=O)Cc2ccc(OC)c(OC)c2)c2ccccc2)c1 | 281 µL/min/mg | 270 µL/min/mg |

| SMILES | microsomal CLint at 0.5 h, 1 µM [1] | microsomal CLint at 0.5 h, 1 µM [2] |
| --- | --- | --- |
| CNS(=O)(=O)c1ccc(C)c(NC(=O)[C@@H](CC(C)C)NC(=N)NC(=O)Cc2ccc(OC)c(OC)c2)c1 | 239 µL/min/mg | 188 µL/min/mg |
| Cc1ccc(S(=O)(=O)N(C)C)cc1NC(=O)[C@@H](CC1CCCCC1)NC(=N)NC(=O)Cc1ccc(Cl)c(Cl)c1 | 248 µL/min/mg | 238 µL/min/mg |
| CCC[C@@H](NC(=N)NC(=O)Cc1ccc(OC)c(OC)c1)C(=O)Nc1cc(S(N)(=O)=O)ccc1C | 89.3 µL/min/mg | 266 µL/min/mg |
| COc1ccc(CC(=O)NC(=N)N[C@H](CC2CCCCC2)C(=O)Nc2cc(S(N)(=O)=O)ccc2C)cc1OC | 171 µL/min/mg | 161 µL/min/mg |
| CNS(=O)(=O)c1ccc(C)c(NC(=O)[C@@H](CC2CCCCC2)NC(=N)NC(=O)Cc2cc(Cl)cc(C(F)(F)F)c2)c1 | 239 µL/min/mg | 220 µL/min/mg |
| NC(=O)N1c2ccccc2C=Cc2ccccc21 [CARBAMAZEPINE] | 6 µL/min/mg | 7 µL/min/mg |
| CNS(=O)(=O)c1ccc(C)c(NC(=O)[C@@H](CC2CCCCC2)NC(=N)NC(=O)Cc2ccc(Cl)c(Cl)c2)c1 | 336 µL/min/mg | 176 µL/min/mg |
| COc1ccc(CC(=O)NC(=N)N[C@H](CC2CCCCC2)C(=O)Nc2cc(S(=O)(=O)N(C)C)ccc2C)cc1OC | 204 µL/min/mg | 226 µL/min/mg |
| Cc1ccc(S(=O)(=O)N(C)C)cc1NC(=O)[C@@H](CC1CCCCC1)NC(=N)NC(=O)Cc1cccc(C(F)(F)F)c1 | 238 µL/min/mg | 270 µL/min/mg |
| Cc1ccc(S(=O)(=O)N(C)C)cc1NC(=O)[C@@H](CC1CCCCC1)NC(=N)NC(=O)Cc1cccc(C#N)c1 | 287 µL/min/mg | 250 µL/min/mg |
| CNS(=O)(=O)c1ccc(C)c(NC(=O)[C@@H](CC2CCCCC2)NC(=N)NC(=O)Cc2ccc(F)c(OC)c2)c1 | 287 µL/min/mg | 326 µL/min/mg |
| CNS(=O)(=O)c1ccc(C)c(NC(=O)[C@@H](CC2CCCCC2)NC(=N)NC(=O)Cc2ccc(OC)c(OC)c2)c1 | 177 µL/min/mg | 177 µL/min/mg |
| CNS(=O)(=O)c1ccc(C)c(NC(=O)[C@@H](CC2CCCCC2)NC(=N)NC(=O)Cc2ccc(OC)c(Cl)c2)c1 | 295 µL/min/mg | 273 µL/min/mg |
| COc1ccc(CC(=O)NC(=N)N[C@@H](C(=O)Nc2cc(S(N)(=O)=O)ccc2C)C(C)(C)C)cc1OC | 108 µL/min/mg | 211 µL/min/mg |
| Cc1ccc(S(=O)(=O)N(C)C)cc1NC(=O)[C@@H](CC1CCCCC1)NC(=N)NC(=O)Cc1ccccc1C(F)(F)F | 208 µL/min/mg | 244 µL/min/mg |
| CNS(=O)(=O)c1ccc(C)c(NC(=O)[C@@H](CC2CCCCC2)NC(=N)NC(=O)Cc2ccc(OC)c(C(F)(F)F)c2)c1 | 188 µL/min/mg | 215 µL/min/mg |
| CNS(=O)(=O)c1ccc(C)c(NC(=O)[C@@H](CC2CCCCC2)NC(=N)NC(=O)Cc2cc(C(F)(F)F)cc(C(F)(F)F)c2)c1 | 175 µL/min/mg | 187 µL/min/mg |
| COc1ccc(CCC(=O)NC(=N)N[C@H](CC2CCCCC2)C(=O)Nc2cc(S(=O)(=O)N(C)C)ccc2C)cc1OC | 169 µL/min/mg | 234 µL/min/mg |

Reference: ChEMBL document CHEMBL4699662, “Identification and structure-activity relationship studies of small molecule inhibitors of the human cathepsin D” (Bioorg Med Chem, 2021)
